Reference: PMC11494503, “Next Generation SICLOPPS Screening for the Identification of Inhibitors of the HIF-1α/HIF-1β Protein–Protein Interaction” (ACS Chemical Biology, 2024)

System: HIF-1
Assay: HIF-1-dependent luciferase reporter assay in U2OS-HRE-Luc cells in hypoxia
Format: cell-based, human
Conditions: 16 h in hypoxia
Description: HIF Luciferase Reporter Assays
Assays were conducted in previously reported U2OS-HRE-Luciferase (U2OS-HRE-Luc) cells.2 Upon reaching 80-90% confluency, U2OS-HRE-Luc were plated (10 000 cells/well) in 96-well plates (Perkin-Elmer) and incubated in a cell incubator for 16 h. The cells were treated with cyclic peptide at […]
manufacturer’s protocol. […] The

Question: Which luciferase signal reduction (20 μM) does the source give for CC(C)C[C@@H]1NC(=O)[C@H](CS)NC(=O)[C@H](Cc2ccccc2)NC(=O)[C@H](CC(C)C)NC(=O)[C@H](CC(C)C)NC(=O)[C@H](CSSC[C@H](N)C(=O)NCC(=O)N[C@@H](CCCNC(=N)N)C(=O)N[C@@H](CCCCN)C(=O)N[C@@H](CCCCN)C(=O)N[C@@H](CCCNC(=N)N)C(=O)N[C@@H](CCCNC(=N)N)C(=O)N[C@@H](CCC(N)=O)C(=O)N[C@@H](CCCNC(=N)N)C(=O)N[C@@H](CCCNC(=N)N)C(=O)N[C@@H](CCCNC(=N)N)C(=O)N2CCC[C@H]2C(=O)N2CCC[C@H]2C(=O)N[C@@H](CCC(N)=O)C(=O)O)NC1=O [Tat-cyclo-CLLFCL] here?
Answer: The luciferase signal reduction was 70%.

Question: And the reduction in luminescence (40 μM)?
Answer: Its reduction in luminescence is 84%.

Question: What about the IC50 (multiple doses, read-out: IC50 of reduction in the hypoxia-mediated luciferase signal) of the same molecule?
Answer: The IC50 was 13 ± 4 µM.
